# Experimental data reported in patent US9314498B2, “Bacteriocin derived from Lactobacillus rhamnosus” (priority 2011, dated 2016).
# What was measured:
# [1] = system: Porphyromonas gingivalis Hudoi001 strain; assay: Antimicrobial activity against Porphyromonas gingivalis Hudoi001; format: cell-based; settings: not shown in the figures
# Protocol: (§1) The Candida albicans GDH18 strain was precultured using SD medium (Difco) at 37° C. for 24 hours under aerobic conditions. The Streptococcus sobrinus B-13 strain, Streptococcus mutans NCTC10449 strain and Streptococcus mutans Ingbritt strain were precultured using TSB medium (Difco) supplemented with 5% yeast extract (Difco) at 37° C. for 24 hours under aerobic conditions. The Porphyromonas gingivalis Hudoi001 strain and Aggregatibacter actinomycetemcomitans Hudoe001 strain were precultured using BHI medium (Difco) supplemented with hemin (5 mg/L) and vitamin K3 (1 mg/L) at 37° C. for 96 hours under anaerobic conditions with Anaero Pack System (Mitsubishi Gas Chemical Company, Inc.).
# (§2) After the culture, the cells of the Candida, cariogenic bacteria and periodontal disease bacteria were collected by centrifugation at 1000×g, and washed twice with 1 mM phosphate buffer (pH 6.8). The cells were then suspended such that the final concentration was 1×10^8 cfu/ml or 1×10^7 cells/m. For suspension of the Streptococcus strains, ultrasonic treatment was also carried out.
# That is, it is assumed that, in Examples described in Patent Literature 1, the Lactobacillus rhamnosus KO3 strain expressed Kog1 and Kog2, and the expressed Kog1 and Kog2 exerted antimicrobial activity against the Porphyromonas gingivalis Hudoi001 strain. […]
# [2] = system: Porphyromonas gingivalis LPS (P.g-LPS) on RAW264.7 macrophage-like cells, ccl2; assay: LPS inactivation: ccl2 secretion of RAW264.7 cells (ELISA); format: cell-based, mouse
# Protocol: (§3) As a medium, RPMI 1640 medium supplemented with 10% FBS (Fetal Bovine Serum) (Biological industries, Haemek, Israel), 1% antibiotic and 1% L-glutamine was used. In each well of a 24-well plate, 400 μl of the medium was placed, and 100,000 cells/well of mouse-derived RAW264.7 macrophage-like cells were inoculated thereto.
# (§4) The bacteriocin Kog1 or Kog2, which was the same as in Example 1, was incubated in an Eppendorf tube under each of the following 4 conditions together with Porphyromonas gingivalis LPS (manufactured by InvivoGen) (hereinafter referred to as P.g-LPS) and the same medium as described above, at 37° C. under a gas phase of 5% CO2 for 2 hours: (1) 100 ng/ml P.g-LPS positive control; (2) 100 ng/ml P.g-LPS+5 μM Kog1 or Kog2; (3) 100 ng/ml P.g-LPS+10 μM Kog1 or Kog2; (4) 100 ng/ml P.g-LPS+20 μM Kog1 or Kog2.
# (§5) The above-described medium placed in each well of the 24-well plate was removed using a pipetteman, and the medium in the Eppendorf tube for each of the 4 conditions described above was placed in the plate, followed by culturing the cells in the well plate at 37° C. under a gas phase of 5% CO2 for 12 hours. Thereafter, the culture supernatant was collected, and the amount of a chemokine ccl2 or the amount of a cytokine TNF-α secreted into the medium was quantified by the ELISA method by measuring the absorbance at 450 nm using a microplate reader. Since both ccl2 and TNF-α are involved in formation of inflammation, analysis of the relationship between the endotoxin LPS and the bacteriocins Kog1 and Kog2 is possible.
# [3] = system: Aggregatibacter actinomycetemcomitans Hudoe001 strain; assay: Antimicrobial activity against Aggregatibacter actinomycetemcomitans Hudoe001; format: cell-based; settings: tested 0 to 50 μM
# [4] = Measurement of the isoelectric point of the synthesized peptides; format: physicochemical; settings: synthesized peptide
# Description: Among antimicrobial peptides, hBD2 (human P-defensin-2 (see Eur J., 2002, Oral Sci. (109), 121-124)) is well known as a basic antimicrobial peptide, and has an isoelectric point of about 10. However, the isoelectric points of Kog1 and Kog2 of the embodiment 2 were higher than the isoelectric point of hBD2, and more similar to the isoelectric points of antimicrobial peptides derived from mammals. Thus, Kog1 and Kog2 were confirmed to have less cytotoxicity.
# [5] = system: Porphyromonas gingivalis LPS (P.g-LPS) on RAW264.7 macrophage-like cells, TNF-α; assay: LPS inactivation: TNF-α secretion of RAW264.7 cells (ELISA); format: cell-based
# Protocol: as §3, §4, §5
# [6] = system: Candida albicans GDH18 strain; assay: Antimicrobial activity (CFU count, percentage of living cells) against Candida albicans GDH18; format: cell-based; settings: 37° C., 90 minutes, 1 mM phosphate buffer
# Description: As the Candida, cariogenic bacteria and periodontal disease bacteria, the Candida albicans GDH18 strain, Streptococcus sobrinus B-13 strain, Streptococcus mutans NCTC10449 strain, Streptococcus mutans Ingbritt strain, Porphyromonas gingivalis Hudoi001 strain and Aggregatibacter actinomycetemcomitans Hudoe001 strain were used. The test strains were provided from Faculty of Dentistry, Hiroshima University, Japan, and Hiroshima University Dental Hospital.
# as §1, §2
# Evaluation of the antimicrobial activity was carried out by the method by Edgerton and others (1998) with some modifications. With 20 mL of 1 mM phosphate buffer containing 0 to 25 μM Kog1 or Kog2 synthesized in Example 1, 20 μl of the suspension of the Candida albicans GDH18 strain cultured and prepared by the method described in the above Preparation Example was mixed, and the resulting mixture was incubated at 37° C. for 90 minutes with shaking. As a control, 20 ml of 1 mM phosphate buffer alone was used. The reaction was stopped by addition of 360 ml of YNB medium (Difco), and the number of colonies formed (colony forming units; CFUs) was counted together with the number of colonies in the control, to determine the percentage of living bacterial cells. That is, the equation of: (CFUs of suspension containing Kog1 or Kog2/CFU ml^−1 of control suspension)×100 was used to calculate the percentage.
# [7] = system: Streptococcus mutans Ingbritt strain; assay: Antimicrobial activity against Streptococcus mutans Ingbritt; format: cell-based; settings: 0 to 100 μM, FIG. 5
# [8] = 100 ng/ml P.g-LPS + Kog2 above a certain level, as amount added increases
# [9] = 100 ng/ml P.g-LPS + small amount of Kog2 (5 μM)
substance,measurement,setting,value
"Kog2: peptide having the amino acid sequence shown in SEQ ID NO: 2, bacteriocin of Lactobacillus rhamnosus, synthesized by the tea-bag method (MTKVRSSRLRPLTLRLLSAPARAQFLTIACRAILRYDLINS; listed as Lactobacillus rhamnosus)",antimicrobial activity,[1],capable of exerting antimicrobial activity
same,amount of the chemokine ccl2 secreted,[2]; [8],decreases
same,amount of the chemokine ccl2 secreted,[2]; [9],increases
same,peptide concentration at which 100% of the strain was killed,[3],1.56 µM
same,isoelectric point (pl),[4],12.38
same,amount of the cytokine TNF-α secreted,[5]; [8],decreases
same,amount of the cytokine TNF-α secreted,[5]; [9],increases
same,peptide concentration at which 100% of the strain was killed,[6],0.39 µM
same,"antimicrobial activity compared to the other antimicrobial peptides (hBD2, lysozyme)",[7],capable of killing a larger amount of Streptococcus mutans even at relatively low peptide concentration
